How the values were obtained:
Assay in all cases: relative viability (nuclei count vs DMSO), 5 days (fraction); higher = more cells survive
GSK-J4 + AZD7762 = compound: CCOC(=O)CCNc1cc(N2CCc3ccccc3CC2)nc(-c2ccccn2)n1 [GSK-J4] + NC(=O)Nc1cc(-c2cccc(F)c2)sc1C(=O)N[C@H]1CCCNC1 [AZD7762] (partner 0.2 µM)
In short: (§1)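 Each reported value is a median over duplicate plates. It expresses relative viability: treated-well nuclei count divided by vehicle-well nuclei count. Lung cancer cell lines in 1536-well plates were dosed by pin tool a day after seeding, alone with one drug or with a fixed anchor-drug dose plus five library-drug doses (not always all listed) in √10 steps, and nuclei were counted after 5 days.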

AZ3146 + Phenformin = compound: CN1CCC(CC1)OC2=CC(=C(C=C2)NC3=NC=C4C(=N3)N(C(=O)N4C)C5CCCC5)OC [AZ3146] + N=C(N)NC(=N)NCCc1ccccc1 [Phenformin] (partner 250 µM)
In short: as §1

GSK-J4 + Tozasertib = compound: CCOC(=O)CCNc1cc(N2CCc3ccccc3CC2)nc(-c2ccccn2)n1 [GSK-J4] + Cc1cc(Nc2cc(N3CCN(C)CC3)nc(Sc3ccc(NC(=O)C4CC4)cc3)n2)n[nH]1 [Tozasertib] (partner 0.1 µM)
In short: as §1

GSK-J4 + Pemetrexed = compound: CCOC(=O)CCNc1cc(N2CCc3ccccc3CC2)nc(-c2ccccn2)n1 [GSK-J4] + Nc1nc2[nH]cc(CCc3ccc(C(=O)N[C@@H](CCC(=O)O)C(=O)O)cc3)c2c(=O)[nH]1 [Pemetrexed] (partner 0.2 µM)
In short: as §1

Cell Line	relative viability (GSK-J4 + AZD7762; first compound 0.5 µM)	relative viability (GSK-J4 + AZD7762; first compound 1.581 µM)	relative viability (GSK-J4 + AZD7762; first compound 15.81 µM)	relative viability (GSK-J4 + AZD7762; first compound 50 µM)	relative viability (AZ3146 + Phenformin; first compound 0.08 µM)	relative viability (AZ3146 + Phenformin; first compound 0.253 µM)	relative viability (AZ3146 + Phenformin; first compound 0.8 µM)	relative viability (AZ3146 + Phenformin; first compound 2.53 µM)	relative viability (AZ3146 + Phenformin; first compound 8 µM)	relative viability (GSK-J4 + Tozasertib; first compound 0.5 µM)	relative viability (GSK-J4 + Tozasertib; first compound 1.581 µM)	relative viability (GSK-J4 + Tozasertib; first compound 15.81 µM)	relative viability (GSK-J4 + Tozasertib; first compound 50 µM)	relative viability (GSK-J4 + Pemetrexed; first compound 0.5 µM)	relative viability (GSK-J4 + Pemetrexed; first compound 1.581 µM)	relative viability (GSK-J4 + Pemetrexed; first compound 15.81 µM)	relative viability (GSK-J4 + Pemetrexed; first compound 50 µM)	relative viability (GSK-J4 + AZD7762; first compound 5 µM)	relative viability (GSK-J4 + Tozasertib; first compound 5 µM)	relative viability (GSK-J4 + Pemetrexed; first compound 5 µM)
LU99A	0.277	0.249	0.244	0.126	0.687	0.841	0.676	0.8	0.842	0.233	0.276	0.281	0.253	0.16	0.158	0.178	0.166			
LXF-289	1.09	0.836	1.07	0.987	0.535	0.49	0.524	0.528	0.43	0.198	0.154	0.166	0.204	0.835	0.776	0.805	0.813	0.742	0.132	0.931
NCI-H23	0.206	0.388	0.239	0.265	0.823	0.805	0.832	0.789	0.8	0.333	0.397	0.281	0.249	0.679	0.525	0.568	0.598	0.254	0.373	0.653
NCI-H322M	0.618	0.506	0.636	0.536	0.82	0.811	0.715	0.833	0.585	0.457	0.393	0.442	0.507	0.638	0.588	0.394	0.682	0.555	0.484	0.672
NCI-H358	0.598	0.576	0.606	0.44	0.451	0.283	0.319	0.313	0.149	0.087	0.0898	0.113	0.129	0.237		0.171	0.188	0.692	0.0969	0.171
NCI-H441	1.12	1	1.01	0.967	0.762	0.884	0.812	0.864	0.737	0.595	0.634	0.559	0.494	0.26	0.226	0.249	0.284	1.05	0.526	0.303
NCI-H460	0.645		0.65	0.555	0.49	0.493	0.466	0.515	0.0767	0.41	0.387	0.294	0.283	0.0749		0.0643	0.0656		0.344	0.0554
NCI-H522	0.909	0.759	0.637	0.603	0.818	0.698	0.757	0.631	0.62	0.541	0.608	0.515	0.485	0.983	0.823	0.608	1.1		0.502	
NCI-H596	1.18	1.12	0.926	1.12	0.672	0.738	0.722	0.735	0.797	0.953	0.891	0.847	0.691	0.519	0.485	0.465	0.549	1.01	0.971	0.473
NCI-H647	0.596	0.431	0.386	0.44	0.394	0.649	0.59	0.465	0.32	0.315	0.192	0.28	0.155	0.175	0.177	0.184	0.205	0.271	0.178	0.168
NCI-H650	0.938	1.04	0.782	0.696	0.386	0.44	0.445	0.526	0.461	0.677	0.727	0.526	0.459	0.82	0.843	0.833	0.842		0.432	
NCI-H838	0.971	0.681	0.874	0.789	0.581	0.554	0.556	0.517	0.229	0.299	0.26	0.26	0.21	0.242	0.219	0.248	0.199	0.76		0.218
NCI-H1355	0.731	0.693	0.532	0.584	0.446	0.444	0.437	0.465	0.404	0.517	0.517	0.439	0.437	0.988	0.975	0.858	0.992	0.516	0.575	0.889
NCI-H1395	0.403	0.415	0.351	0.413	0.394	0.45	0.379	0.423	0.445	0.806	0.864	0.687	0.614	0.894	0.73	0.764	0.707	0.409	0.728	0.707
NCI-H1437	1.1	0.898	1.07	0.595	0.264	0.34	0.312	0.295	0.313	0.391	0.372	0.377	0.293	0.298	0.317	0.297	0.262	1.02	0.384	0.3
NCI-H1651	0.4	0.468	0.406	0.38	0.31	0.316	0.345	0.34	0.313	0.674	0.623	0.569	0.567	0.587	0.597	0.518	0.56	0.466	0.807	0.595

Source: the supplement of paper PMC10307832
